We go through 30 compounds from ChEMBL document CHEMBL1201862, “PubChem BioAssay data set” (2004).

Calls of active or inactive are those of the source.

Targets include Cytochrome P450 2D6 (Homo sapiens, UniProt P10635); Cytochrome P450 3A4 (Homo sapiens, UniProt P08684); Cytochrome P450 2C9 (Homo sapiens, UniProt P11712).
Another assay deals with Cytochrome P450 2C19 (Homo sapiens, UniProt P33261). Briefly: Cytochrome panel assay with activity outcomes. Panel member name: p450-cyp2c19 Compounds with AC50 equal or less than 10 uM are considered active. As to conditions: read-out: AC50. The format is functional.
Chain of Cytochrome P450 2C19 (P33261 whole entry): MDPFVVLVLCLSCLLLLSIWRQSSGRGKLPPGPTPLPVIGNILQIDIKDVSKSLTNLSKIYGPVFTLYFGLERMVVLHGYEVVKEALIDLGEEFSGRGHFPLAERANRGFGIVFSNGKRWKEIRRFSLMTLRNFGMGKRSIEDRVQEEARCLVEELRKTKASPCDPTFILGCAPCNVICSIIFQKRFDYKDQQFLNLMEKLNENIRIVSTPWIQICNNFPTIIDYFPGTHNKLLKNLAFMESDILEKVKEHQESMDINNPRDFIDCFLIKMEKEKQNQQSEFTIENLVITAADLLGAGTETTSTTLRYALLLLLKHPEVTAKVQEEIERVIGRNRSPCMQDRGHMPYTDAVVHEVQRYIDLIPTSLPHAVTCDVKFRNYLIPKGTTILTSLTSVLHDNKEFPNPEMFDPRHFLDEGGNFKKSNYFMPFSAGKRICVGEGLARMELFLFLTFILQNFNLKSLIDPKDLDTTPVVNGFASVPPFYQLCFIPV
Assay [1] deals with T1, Corticotropin-releasing factor receptor 2/Corticotropin-releasing factor-binding protein (Homo sapiens, UniProt P24387+Q13324).
T1 sequence (Q13324 whole entry): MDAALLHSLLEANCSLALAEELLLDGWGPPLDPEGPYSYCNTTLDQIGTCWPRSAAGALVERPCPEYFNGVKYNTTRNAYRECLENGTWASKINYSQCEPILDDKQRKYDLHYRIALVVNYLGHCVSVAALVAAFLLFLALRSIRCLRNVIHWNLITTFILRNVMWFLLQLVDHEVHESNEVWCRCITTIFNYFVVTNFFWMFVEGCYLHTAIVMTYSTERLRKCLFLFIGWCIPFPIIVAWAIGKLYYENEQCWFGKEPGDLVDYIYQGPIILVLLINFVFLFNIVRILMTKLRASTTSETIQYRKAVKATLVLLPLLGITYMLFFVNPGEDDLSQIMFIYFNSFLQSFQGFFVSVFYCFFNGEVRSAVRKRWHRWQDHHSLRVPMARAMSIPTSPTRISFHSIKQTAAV
T1 sequence (P24387 whole entry): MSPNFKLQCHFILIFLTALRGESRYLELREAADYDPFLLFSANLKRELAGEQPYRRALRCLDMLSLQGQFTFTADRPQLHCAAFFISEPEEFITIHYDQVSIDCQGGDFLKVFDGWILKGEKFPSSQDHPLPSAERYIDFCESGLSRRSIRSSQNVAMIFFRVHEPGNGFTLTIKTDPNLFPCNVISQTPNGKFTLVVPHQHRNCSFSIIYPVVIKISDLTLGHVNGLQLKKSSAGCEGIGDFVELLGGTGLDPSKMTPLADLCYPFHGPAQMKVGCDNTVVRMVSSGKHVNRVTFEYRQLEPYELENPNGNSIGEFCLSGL
Briefly: activators of CRF receptor 2 with binding protein – uHTS hits, confirmation (AID 602473). The format is functional. The note with it: read-out: EC50_Mean.

The target of another assay is T2, Protein RecA (Mycobacterium tuberculosis, UniProt P9WHJ3).
T2 sequence (P9WHJ3 whole entry): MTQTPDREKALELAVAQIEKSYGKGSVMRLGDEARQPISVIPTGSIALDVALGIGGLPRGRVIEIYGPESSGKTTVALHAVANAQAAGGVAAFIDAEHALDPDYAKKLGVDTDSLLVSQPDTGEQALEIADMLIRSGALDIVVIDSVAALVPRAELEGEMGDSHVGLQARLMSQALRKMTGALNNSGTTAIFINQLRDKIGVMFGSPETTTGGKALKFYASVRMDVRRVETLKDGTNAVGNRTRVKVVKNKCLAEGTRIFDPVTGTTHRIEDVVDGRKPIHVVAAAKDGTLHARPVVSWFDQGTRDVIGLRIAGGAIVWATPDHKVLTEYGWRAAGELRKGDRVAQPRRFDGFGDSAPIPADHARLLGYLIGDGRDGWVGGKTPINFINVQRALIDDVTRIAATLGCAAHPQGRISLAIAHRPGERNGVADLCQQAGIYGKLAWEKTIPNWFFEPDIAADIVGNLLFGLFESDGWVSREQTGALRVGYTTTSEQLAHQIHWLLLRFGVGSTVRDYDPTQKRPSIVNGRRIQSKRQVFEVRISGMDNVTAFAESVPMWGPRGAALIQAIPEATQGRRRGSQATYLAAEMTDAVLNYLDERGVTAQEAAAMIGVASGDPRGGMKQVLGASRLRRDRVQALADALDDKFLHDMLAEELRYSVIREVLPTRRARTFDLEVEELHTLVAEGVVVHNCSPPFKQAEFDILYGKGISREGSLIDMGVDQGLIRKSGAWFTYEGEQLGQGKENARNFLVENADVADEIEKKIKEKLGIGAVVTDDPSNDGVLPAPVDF
Briefly: Fluorescence Cell-Free Homogeneous Dose Retest to Identify Inhibitors of RecA-Intein Splicing Activity. [Related pubchem assays (depositor defined):AID2097, AID2223, AID489010, AID492950]. In kind it is functional.

The target in assay [2] is T3, Replicative DNA helicase DnaB (Mycobacterium tuberculosis, UniProt P9WMR3).
T3 sequence (P9WMR3 whole entry): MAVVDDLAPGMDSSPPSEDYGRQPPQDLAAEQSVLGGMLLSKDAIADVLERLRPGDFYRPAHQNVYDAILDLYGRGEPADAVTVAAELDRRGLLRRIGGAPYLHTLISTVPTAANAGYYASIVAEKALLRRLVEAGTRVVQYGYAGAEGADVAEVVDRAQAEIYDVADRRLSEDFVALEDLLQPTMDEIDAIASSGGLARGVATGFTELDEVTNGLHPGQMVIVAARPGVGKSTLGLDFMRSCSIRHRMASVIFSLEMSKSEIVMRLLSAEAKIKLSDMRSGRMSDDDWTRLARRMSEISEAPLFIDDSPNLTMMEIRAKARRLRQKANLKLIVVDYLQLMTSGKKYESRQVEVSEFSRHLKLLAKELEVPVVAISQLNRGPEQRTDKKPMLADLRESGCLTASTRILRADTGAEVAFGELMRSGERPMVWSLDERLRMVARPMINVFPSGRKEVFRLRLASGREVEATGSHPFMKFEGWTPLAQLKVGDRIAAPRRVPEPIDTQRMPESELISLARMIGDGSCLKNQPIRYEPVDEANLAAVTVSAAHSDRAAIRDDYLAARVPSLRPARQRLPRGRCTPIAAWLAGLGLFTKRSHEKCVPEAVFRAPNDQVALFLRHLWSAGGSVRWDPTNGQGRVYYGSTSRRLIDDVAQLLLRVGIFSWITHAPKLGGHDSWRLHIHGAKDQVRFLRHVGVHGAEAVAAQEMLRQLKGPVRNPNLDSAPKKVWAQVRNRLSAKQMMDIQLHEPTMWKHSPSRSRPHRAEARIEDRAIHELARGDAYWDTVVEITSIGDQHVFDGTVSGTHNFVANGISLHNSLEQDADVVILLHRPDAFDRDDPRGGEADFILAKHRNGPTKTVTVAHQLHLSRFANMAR
Briefly: DnaB intein splicing inhibitors, dose response, biochemical, cell-free fluorescence (AID 449749). In kind it is functional.

The nature of the next assay: cells. The format is functional.
For the next assay, the target named is T4, Cytochrome P450 1A2 (Homo sapiens, UniProt P05177).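 Also: PubChem cytochrome P450 panel assay, CYP1A2 panel member.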
T4 sequence (P05177 whole entry): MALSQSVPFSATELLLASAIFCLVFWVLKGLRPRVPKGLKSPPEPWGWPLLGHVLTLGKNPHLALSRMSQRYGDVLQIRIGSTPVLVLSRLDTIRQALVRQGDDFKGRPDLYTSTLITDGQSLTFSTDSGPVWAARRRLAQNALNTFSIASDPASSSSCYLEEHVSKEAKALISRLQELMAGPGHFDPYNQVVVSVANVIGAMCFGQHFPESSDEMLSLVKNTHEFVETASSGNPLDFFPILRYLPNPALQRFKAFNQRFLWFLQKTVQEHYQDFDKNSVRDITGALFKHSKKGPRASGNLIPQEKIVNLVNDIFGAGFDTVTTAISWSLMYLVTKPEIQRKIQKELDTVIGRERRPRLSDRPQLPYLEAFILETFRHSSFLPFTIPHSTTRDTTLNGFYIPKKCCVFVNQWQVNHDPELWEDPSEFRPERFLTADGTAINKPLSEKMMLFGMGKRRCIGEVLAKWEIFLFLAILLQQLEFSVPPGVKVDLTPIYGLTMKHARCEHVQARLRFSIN

The test system of a further assay is Streptococcus. Briefly: GAS UMAA2166 growth inhibition – luminescence, BacTiterGlo, counter-screen for streptokinase expression inhibitor project, dose response (AID 1915).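 Also: potency for reduction of bacterial viability or growth.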 The format is functional, organism-based. (The purpose of a counterscreen is to sort out artefacts and off-target activity.)
In assay [3] the test system is Streptococcus sp. 'group A'. Briefly: Streptococcus pyogenes SK(-)GAS viability under kanamycin – luminescence, BacTiterGlo, confirmation, counter-screen for streptokinase expression inhibitor project, dose response (AID 1900). The format is functional, organism-based.

Broadly, the AC50 is the midpoint of the concentration-response curve, whichever way the signal moves. As usually defined, the IC50 is the concentration at which inhibition is half-maximal.

Chain of Cytochrome P450 2C9 (P11712 whole entry): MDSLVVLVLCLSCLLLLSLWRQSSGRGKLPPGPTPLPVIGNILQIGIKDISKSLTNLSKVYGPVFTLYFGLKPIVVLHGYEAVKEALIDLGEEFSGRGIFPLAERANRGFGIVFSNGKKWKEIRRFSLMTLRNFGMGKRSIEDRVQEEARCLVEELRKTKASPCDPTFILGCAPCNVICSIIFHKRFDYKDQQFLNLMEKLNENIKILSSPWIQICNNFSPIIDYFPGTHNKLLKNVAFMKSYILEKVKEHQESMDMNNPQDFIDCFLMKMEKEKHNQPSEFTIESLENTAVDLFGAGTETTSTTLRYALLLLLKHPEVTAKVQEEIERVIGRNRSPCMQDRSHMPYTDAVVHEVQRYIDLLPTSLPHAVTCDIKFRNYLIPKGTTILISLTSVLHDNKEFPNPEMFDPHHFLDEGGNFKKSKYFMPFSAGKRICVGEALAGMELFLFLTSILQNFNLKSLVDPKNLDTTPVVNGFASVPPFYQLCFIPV
Chain of Cytochrome P450 2D6 (P10635 whole entry): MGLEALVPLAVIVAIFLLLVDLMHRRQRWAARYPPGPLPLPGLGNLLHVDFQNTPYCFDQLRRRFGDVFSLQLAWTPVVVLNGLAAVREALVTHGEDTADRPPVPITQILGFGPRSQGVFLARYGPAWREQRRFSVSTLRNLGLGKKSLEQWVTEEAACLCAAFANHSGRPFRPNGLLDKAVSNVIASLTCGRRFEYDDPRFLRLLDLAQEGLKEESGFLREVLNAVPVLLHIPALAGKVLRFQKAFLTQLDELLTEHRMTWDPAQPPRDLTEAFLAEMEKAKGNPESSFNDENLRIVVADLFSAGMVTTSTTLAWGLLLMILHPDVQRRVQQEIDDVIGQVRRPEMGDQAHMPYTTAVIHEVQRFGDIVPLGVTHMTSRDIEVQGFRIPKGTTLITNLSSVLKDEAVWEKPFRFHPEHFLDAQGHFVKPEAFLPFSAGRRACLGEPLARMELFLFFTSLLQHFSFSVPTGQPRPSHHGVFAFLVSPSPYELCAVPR
Chain of Cytochrome P450 3A4 (P08684 whole entry): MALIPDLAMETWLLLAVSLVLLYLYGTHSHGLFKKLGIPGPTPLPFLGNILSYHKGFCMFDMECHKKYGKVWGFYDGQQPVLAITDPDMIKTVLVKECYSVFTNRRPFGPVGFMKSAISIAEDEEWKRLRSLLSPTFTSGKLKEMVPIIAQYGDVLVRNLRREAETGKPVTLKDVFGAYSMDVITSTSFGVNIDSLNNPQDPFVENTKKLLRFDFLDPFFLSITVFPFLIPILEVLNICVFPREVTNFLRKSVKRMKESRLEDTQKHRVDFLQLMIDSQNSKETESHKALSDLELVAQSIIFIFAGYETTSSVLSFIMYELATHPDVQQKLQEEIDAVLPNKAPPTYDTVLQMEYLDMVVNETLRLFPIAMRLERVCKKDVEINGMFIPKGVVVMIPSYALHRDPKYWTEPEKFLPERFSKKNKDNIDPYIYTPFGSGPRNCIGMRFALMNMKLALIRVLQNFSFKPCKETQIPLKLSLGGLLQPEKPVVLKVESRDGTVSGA

On to `Cc1cc(-c2ccc(/C=N/n3cnnc3)o2)c([N+](=O)[O-])cc1C`, for which the AC50 on Cytochrome P450 2D6 is 11.2 µM (inconclusive).
Consider `O=C(O)[C@@H]1C[C@@H](C(=O)O)N1`, for which the AC50 on Cytochrome P450 2D6 was 39.8 µM (inconclusive).
For `CN(C)C(=O)c1ccc(-c2nccc(NCc3cccs3)n2)cc1`, the AC50 on Cytochrome P450 2C19 and at Cytochrome P450 2D6 was 20 µM (inconclusive) throughout.
For the compound `Fc1ccc(Br)cc1C1C=C(c2ccc(Br)cc2)Nc2ncnn21` (stereo not drawn), the EC50 in assay [1] was > 53 µM (inactive).
Turning to `C/C(=N\NC(=O)CC#N)c1cc2ccccc2oc1=O`, at Protein RecA, the EC50 was 2.97 µM (active). Besides, the AC50 in assay [2] was 3.44 µM (active).
With `Cc1ccc(OC(=O)c2ccc(Br)o2)cc1`, in “cells”, the IC50 is 18.5 µM (active).
As for `O=C(c1cc(C(F)(F)F)cc(C(F)(F)F)c1)N1CCC2(CCCN(c3ncccn3)C2)CC1`, the AC50 on Cytochrome P450 3A4 was 15.8 µM (inconclusive); at Cytochrome P450 2C19 it was 20 µM (inconclusive); on Cytochrome P450 1A2, 31.6 µM (inconclusive); at Cytochrome P450 2D6, 10 µM (inconclusive).
Turning to `O=c1cc(-c2ccncc2)oc2c1ccc1ccccc12`, the IC50 in “cells” is 17.9 µM (active).
For the compound `COc1ccc(CNC(=O)C(c2ccc(C)o2)N(C(=O)c2snc(C(N)=O)c2N)c2ccccc2OC)cc1` (stereo not drawn), the EC50 on Protein RecA was > 380 µM (inactive). For the same compound, the AC50 in assay [2] was > 380 µM (inactive).
For the compound `Cc1cnc(CNc2nc(-c3ccccc3C(F)(F)F)nc3ccccc23)cn1`, the AC50 on Cytochrome P450 2C19 is 39.8 µM (inconclusive); on Cytochrome P450 2D6 it was 25.1 µM (inconclusive).
`CCOc1cccc(NC(=O)CSc2nc(C)c3c(c2C#N)CCCC3)c1`: the AC50 was 0.178 µM (inconclusive) on Cytochrome P450 2C19 and 0.0794 µM (inconclusive) on Cytochrome P450 2D6.
As for `CCOc1ccc(C2C(C(=O)O)c3ccccc3C(=O)N2CCN2CCOCC2)cc1` (stereo not drawn), on Cytochrome P450 2D6, the AC50 was 25.1 µM (inconclusive).
Regarding `Cc1cc(C(=O)COc2cccc3cccnc23)c(C)n1C`, in “cells”, the IC50 is 6.66 µM (active). Moreover, the EC50 in assay [1] was > 53 µM (inactive).
`CC(=O)c1cc2c(ccc3ccccc32)oc1=O`: the IC50 in the assay “cells” is 15.4 µM (active).
As for `CN(C)S(=O)(=O)c1ccc(C(=O)Oc2ccccc2)cc1`, in “cells”, the IC50 was 7.22 µM (active).
Regarding `FC(F)(F)c1ccccc1-c1nc(NCCN2CCOCC2)c2ccccc2n1`, the concentration at half-maximal activity (AC50) at Cytochrome P450 2D6 is 31.6 µM (inconclusive).
On to `CN1CCc2cccc(Cl)c2CC1`, for which the AC50 on Cytochrome P450 2D6 was 31.6 µM (inconclusive).
Turning to `Cc1cccc(CNc2ccnc(-c3cccc(C#N)c3)n2)c1`, the half-maximal activity concentration (AC50) at Cytochrome P450 2C9 was 0.794 µM (inconclusive); on Cytochrome P450 2D6 it was 25.1 µM (inconclusive).
For the compound `CCCCCCCCCOc1ccc2[nH]cc(CCN)c2c1`, the AC50 was 39.8 µM (inconclusive) on Cytochrome P450 3A4, 25.1 µM (inconclusive) on Cytochrome P450 2C9 and 25.1 µM (inconclusive) on Cytochrome P450 2D6.
With `CCCCCCCCCCCCC(=O)N1CCCC[C@H]1CNC(=O)[C@@H](N)CCCCN`, the results for the AC50 at Cytochrome P450 2C9, at Cytochrome P450 1A2 and at Cytochrome P450 2D6 were 10 µM (inconclusive), 31.6 µM (inconclusive) and 25.1 µM (inconclusive), respectively.
Consider `O=C(c1n[nH]c(=O)c2ccccc12)N1CCN(C2c3ccccc3-c3ccccc32)CC1`, for which the AC50 at Cytochrome P450 2D6 is 31.6 µM (inconclusive).
For `CCOC(=O)C1CSC(CC(=O)Nc2ccc(Cl)c(Cl)c2)C(=O)N1` (stereo not drawn), the IC50 in “cells” is 36.2 µM (active).
As to `O=C(Cn1cc([N+](=O)[O-])nc1[N+](=O)[O-])N1CCN(c2ccccc2)CC1`, the IC50 in “cells” was 7.01 µM (active).
Regarding `Cc1cc(C)c2c(-n3cccc3)nn(CC#N)c2n1`, the AC50 on Cytochrome P450 3A4 is 15.8 µM (inconclusive); on Cytochrome P450 2C9, 14.1 µM (inconclusive); at Cytochrome P450 2D6, 10 µM (inconclusive).
In the case of `N#C/C(=C\c1c[nH]c2ccccc12)C(=O)c1ccc(O)c(O)c1`, the concentration at half-maximal activity (AC50) at Cytochrome P450 2C19 is 31.6 µM (inconclusive); on Cytochrome P450 2C9 it was 31.6 µM (inconclusive); on Cytochrome P450 2D6 it was 25.1 µM (inconclusive).
Regarding `C[C@@H](C(=O)O)c1ccc(C(=O)c2ccccc2)s1`, the AC50 on Cytochrome P450 3A4 is 12.6 µM (inconclusive); at Cytochrome P450 2C9 it was 15.8 µM (inconclusive); at Cytochrome P450 1A2, 0.251 µM (inconclusive); at Cytochrome P450 2D6, 7.94 µM (inconclusive).
For the compound `Cc1nnc(SC(C(=O)Nc2cc(Cl)cc(Cl)c2)c2ccccc2)nc1O` (stereo not drawn), the results for the EC50 (with Streptococcus; in assay [3]) were > 150 µM (not active) and 10.6 µM (active), respectively.
In the case of `COc1cccc(-c2cncnc2NCc2cccnc2)c1`, the AC50 on Cytochrome P450 2D6 was 20 µM (inconclusive).
On to `Clc1ccccc1-c1nc(NCCN2CCOCC2)c2ccccc2n1`, for which the results for the AC50 on Cytochrome P450 2C19 and at Cytochrome P450 2D6 were 25.1 µM (inconclusive) and 20 µM (inconclusive), respectively.
Regarding `O=C(NCCc1ccccc1)c1cnc2ccccc2c1O`, the EC50 in assay [1] was > 53 µM (inactive).
